Here are results for one sequence from paper PMC5347165, “Killing of Staphylococcus aureus and Salmonella enteritidis and neutralization of lipopolysaccharide by 17-residue bovine lactoferricins: improved activity of Trp/Ala-containing molecules” (Scientific Reports, 2017).

For assay [1], the system named is E. coli CICC21530 (serotype O157:H7). In kind it is cell-based, Escherichia coli. As to conditions: microtiter broth dilution, 10^5 CFU/ml, 16‒18 h at 37 °C; representative of three independent experiments. The protocol: (§1) The MIC values of LfcinB17-33 derivatives against bacteria were determined by the microtiter broth dilution method. Briefly, 10 μl of serially diluted aliquots of peptides were added to each well of 96-well microtiter plates, followed by the addition of 90 μl exponential phase bacteria (10^5 CFU/ml) and incubated for 16‒18 h at 37 °C.

Assay [2] deals with E. coli CVCC1515. The class given is cell-based, Escherichia coli. As to conditions: microtiter broth dilution, 10^5 CFU/ml, 16‒18 h at 37 °C; representative of three independent experiments. The protocol:
as §1

Assay [3] can be described thus: Calcein leakage from model membranes. As to conditions: at 5 min, POPC/POPG (1:3) LUVs, 0.1% Triton X-100 = total. The protocol: Large unilamellar vesicles (LUVs) composed of POPC/POPG (1:3) were used as a model anionic membrane. […] were dissolved in chloroform, dried under nitrogen gas and vacuum-dried for 2 h. The lipid film was rehydrated in 20 mM HEPES (150 mM NaCl, 1 mM EDTA, pH 7.4). To make calcein-encapsulated unilamellar liposomes, the lipid film was suspended in 5 mM sodium HEPES (containing 100 mM calcein, pH 7.5). The liposome suspensions were freeze-thawed in liquid nitrogen five times and extruded ten times through two stacked polycarbonate filters (100 nm pore size) in an Avanti Mini-Extruder. Untrapped calcein was removed using a Sephadex G-50 column (Amersham Pharmacia Biotech, Little Chalfont, UK). Peptides were then added to the LUVs. After a 10-min incubation at room temperature, the release of calcein form vesicles was monitored for 10 min on a Tecan Infinite M200 PRO plate reader (TECAN, Austria) with an excitation wavelength of 485 nm and an emission wavelength of 535 nm. The total calcein fluorescence (FT) was determined by the addition of 0.1% Triton X-100. Dye leakage was calculated according to the following equation: leakage rate (%) = ((F − F0)/(FT − F0)), where F0 indicates the fluorescence of each sample at T = 0.

Assay [4] has as its system S. enteritidis CVCC337. The assay can be described thus: Outer membrane permeabilization, NPN uptake. The class given is cell-based, Salmonella enteritidis. Particulars: 1×, 2× or 4 × MIC; HEPES buffer pH 7.2. How it is done:
The effects of Lfcin4 and Lfcin5 on the outer membrane of S. aureus ATCC25923 and S. enteritidis CVCC3377 were determined by measuring the uptake of NPN[44][45]. Mid-log phase cells were washed with sterile normal saline three times and suspended in 5 mM HEPES buffer (pH 7.2, containing 5 mM glucose) to an OD at 600 nm of 0.5. […] The relative fluorescence intensity was measured using an Infinite M200 PRO plate reader. The excitation and emission wavelengths were set at 328 and 438 nm, respectively. Treatment with PBS severed as a negative control, and treatment with ampicillin or colistin was used as a positive control.

Assay [5] deals with S. aureus ATCC25923. Put plainly: Macromolecular synthesis, incorporation of radioactive precursors. As to conditions: 1 × MIC; 3H-glucosamine. The class given is cell-based, Staphylococcus aureus. The protocol: The effects of each peptide on the incorporation of L-[methyl-^3H] thymidine, [5-^3H] uridine, D-[6-^3H(N)] glucosamine hydrochloride, and L-[3,4,5-^3H] leucine into DNA, RNA, peptidoglycans, and proteins were investigated in S. aureus ATCC25923. […] Radioactive precursors of ^3H-thymidine, ^3H-uridine, ^3H-leucine, and ^3H-glucosamine (40 μCi/ml) were added to cultures to measure macromolecular synthesis and incubated for 20 min at 37 °C. Cold 25% trichloroacetic acid (TCA) was added to the mixture and placed on ice for 30 min. After centrifugation, pellets were washed twice with 25% TCA, dried and counted with scintillation fluid on a MicroBeta 1450 scintillation counter (Perkin Elmer)[46].

For assay [6], the system named is S. aureus ATCC25923. In kind it is in vivo. As to conditions: for reduction of bacterial burden in thigh: 10 h after treatment. How it is done: The thigh infection protocol was performed as previously described. Female BALB/c mice (6 weeks old, 22 ± 2 g) were rendered neutropenic (neutrophils, 100/mm^3) by intraperitoneal injection with 150 and 100 mg cyclophosphamide per kg of body weight for 4 d and 1 d before infection, respectively. Mice were inoculated with 100 μl of S. aureus ATCC25923 cells (1.0 × 10^7 CFU/ml) and given a single dose (0.2 ml) of Lfcin4 or Lfcin5 (10 or 15 mg/kg of body weight) or vancomycin (10 mg/kg of body weight) by tail vein injection at 2 h post-infection. Mice were humanely euthanized by cervical dislocation at 5 and 10 h after treatment. Thighs were removed and homogenized in sterile PBS for a CFU assay for S. aureus ATCC25923.

The test system of assay [7] is LPS from E. coli O111:B4. The assay can be described thus: LPS-induced endotoxemia model, survival. In kind it is in vivo, mouse (C57BL/6). Particulars: followed 7 d, groups of eight mice. How it is done:
Male C57BL/6 mice (8 weeks old, 22 ± 2 g) were intraperitoneally injected with 30 mg/kg of LPS (0.2 ml) from E. coli O111:B4 cells as previously described. Mice were intraperitoneally injected with Lfcin4 or Lfcin5 (10, 15 or 20 mg/kg of body weight in 0.2 ml) or colistin (15 mg/kg of body weight in 0.2 ml) at 0.5, 8 and 24 h after inoculation with LPS, respectively. Mice injected with LPS or saline only served as positive or mock-treated controls, respectively. Survival was recorded every 12 h and followed for up to 7 d.

Assay [8] concerns LPS-induced lung injury. Put plainly: LPS-induced lung injury, histology. The class given is in vivo, mouse (C57BL/6). Particulars: 15 mg/kg i.p. 30 min after LPS 10 mg/kg. How it is done: Thirty minutes after intraperitoneal injection of LPS (10 mg/kg of body weight in 0.2 ml), mice were intraperitoneally injected with Lfcin4, Lfcin5 or colistin (15 mg/kg of body weight in 0.2 ml). Mice were sacrificed at 8 h, 1 d, 4 d, and 7 d after LPS injection. The lungs were removed, washed with PBS and fixed in 4% paraformaldehyde at 4 °C for 24 h. After they were washed with PBS and dehydrated with a graded series of ethanol (75‒95%), the tissues were infiltrated with xylene and embedded in paraffin wax. Sections were cut, stained with hematoxylin and eosin and examined under a light microscope. Mice injected with LPS or only PBS served as positive or mock-treated controls, respectively.

Values joined by “and” are separate entries in the source; they are usually repeats but may differ in a detail not shown here. Equal entries are not always repeated. Where two headings read alike, the source gives them in different places.

For the sequence “FKAWRWAWRMKKLAAPS [Lfcin4, 17-residue LfcinB17-31 derivative, Trp/Ala-containing]”, the MIC in assay [1] was 15 μM and 32 μg/ml; in assay [2], 15 μM and 32 μg/ml. The “dye (calcein) leakage from vesicles” value in assay [3] (1× MIC) is 45.5%; in assay [3] (2× MIC), 90.6%; in assay [3] (4× MIC) it was 98.4%. Besides, the “time to permeabilization of the outer membrane (NPN fluorescence)” value in assay [4] is no more than 1 min. The “label incorporation into peptidoglycans (in words)” value in assay [5] was “increased label incorporation into peptidoglycans”. Further, the “reduction of bacterial burden in thigh” value in assay [6] (10 mg/kg single i.v. dose (Fig. 6A)) came out at 0.03 log10 CFU/g; in assay [6] (15 mg/kg single i.v. dose (Fig. 6A)), 0.10 log10 CFU/g. Further, the “S. aureus cells killed” value in assay [6] (10 h post-treatment, 15 mg/kg single i.v. dose) was 20.5%. The “greater reduction of viable bacteria in infected thighs compared to control mice” value in assay [6] (increasing doses from 10 to 15 mg/kg (discussion)) is 0.85 log10 CFU/g of tissue. Besides, the survival rate in assay [7] (10 mg/kg i.p. at 0.5, 8 and 24 h after LPS 30 mg/kg i.p.) was 75%; in assay [7] (15 mg/kg i.p. at 0.5, 8 and 24 h after LPS 30 mg/kg i.p.) it was 100%; in assay [7] (20 mg/kg i.p. at 0.5, 8 and 24 h after LPS 30 mg/kg i.p.) it was 100%. Moreover, the “lung histology (in words)” value in assay [8] (8 h‒4 d) was “apparently less lung damage”; in assay [8] (7 d), “no obvious pathological differences”.
